Assay results published in publication PMC10986609, “Identification of fungal natural products with potent inhibition in Toxoplasma gondii” (Microbiology Spectrum, 2024).

Tests used:
[1] = tested on: human foreskin fibroblasts (HFFs); test: HFF cytotoxicity dose response (cell counting kit-8); details: for IC50: Homo sapiens, Fibroblast, 48 h, read-out: HFF IC50 (mean ± SEM)
Description: (§1) Samples were further diluted by adding an equal volume of media containing 700 parasites. DMSO and […] of KAE609 were used as negative and positive controls, respectively. Assays were performed with a total of three technical replicates and two biological replicates. After incubation for 48 hours, 50 µL of media was removed, and plates were subjected to freezing and thawing. Following this, 10 µL of passive lysis buffer was added and plates were incubated for 15 min at room temperature. Finally, 30 µL of luciferase reagent was added, and the luminescence was measured immediately using a PHERAstar FSX. In parallel, cytotoxicity dose response was performed in the same fashion without the addition of parasites. Cell counting kit-8 reagent (GlpBio; Cat # GK10001) was added at a 1:10 dilution and incubated at 37°C, 5% CO2 for 1 hour. The absorbance was then measured at 450 nm using a PHERAstar FSX. The data management system CDD vault was used for curve fitting and IC50 determination.

[2] = tested on: Toxoplasma gondii tachyzoites (RH88); test: microbe, parasite or virus in culture; details: Toxoplasma gondii, 48 h, read-out: TgRH88 IC50 (mean ± SEM)
Description: (§2) For the initial fixed concentration screening and IC50 determination in T. gondii, we utilized a luciferase expressing RH88 strain to quantify the number of live, actively replicating parasites. To construct this strain, the Fluc and DHFR selection markers had been integrated into the UPRT locus through CRISPR/Cas9, rendering the strain pyrimethamine-resistant ([6]). Screening was performed using a pure compound library provided by the University of Oklahoma Natural Products Discovery Group, containing 683 compounds derived primarily from fungal secondary metabolites. For purposes of testing, HFFs were grown in 96-well microtiter plates in preparation. The media we used to grow cells was referred to a D10 media that was composed of Dulbecco's Modified Eagle Medium (Thermo Fisher; Cat # 11995073), 10% Fetal Bovine Serum (Sigma-Aldrich; Cat # 12306C), 1 × non-essential amino acids (100 ×; Thermo Fisher; Cat # 11140050), HEPES buffer (1M; Fisher Scientific; Cat # SH3023701) at 0.4M, and 10 mg/mL of gentamicin (Fisher Scientific; Cat # 15710072). Compounds were then diluted to 10 µM in 100 µL of fresh D10 media. Each plate utilized artemisinin and DMSO vehicle controls. To each well, 2,500 parasites per 100 µL of D10 media were added. Three technical replicates were then performed. After 48 hours, 160 µL of the D10 media was removed, and plates were subjected to freezing then thawing. Following this, 10 µL of the passive lysis buffer (Promega; Cat# E1910) was added and incubated at room temperature for 15 min. Finally, 100 µL of luciferase assay reagent (Promega; Cat# E1501) was added to each well, and luminescence was measured using a PHERAstar FSX plate reader (BMG Labtech, Germany).
as §1, with “For IC50 and cytotoxicity determination, we used 384 plates with confluent HFF cells. Compounds were serially diluted 3-fold with a starting concentration of 20 µM. Samples” for “Samples”

[3] = tested on: Toxoplasma gondii tachyzoites (RH88); test: T. gondii fixed concentration screen at 5 µM (luciferase); assay type: cell-based; details: 48 hours
Description: as §2, with “To each well, 2,500 parasites per 100 µL of D10 media were added. Three technical replicates were then performed. After 48 hours, 160 µL of the D10 media was removed, and plates were subjected to freezing then thawing. Following this, 10 µL of the passive lysis buffer (Promega; Cat# E1910) was added and incubated at room temperature for 15 min.” left out

in vitro = details: human
Description: as §1

[4] = tested on: Plasmodium falciparum (Dd2); details: mean of duplicate or triplicate experiments; read-out: PfDd2 IC50; cited from earlier work
T. gondii = tested on: T. gondii; parameters: method as in earlier work; details: 100 µM; cited from earlier work

With `C[C@@H]1CC[C@H]2[C@@H](C)C(=O)O[C@@H]3O[C@@]4(C)CC[C@@H]1[C@]32OO4` [Artemisinin, reference compound] the IC50 [1] was 10.5 µM, the IC50 [2] was 0.702 ± 0.0247 µM and the inhibition at 5 µM [3] was 94%.
For `CO[C@@H]1[C@H](OC(=O)/C=C/C=C/C=C/C=C/C(=O)O)CC[C@]2(CO2)[C@H]1[C@@]1(C)O[C@@H]1CC=C(C)C` [compound 150046, Fumagillin], the IC50 [1] was over 20 µM, the “toxicity to HFFs” value ([1]; highest concentration tested (60 µM)) was “lack of toxicity” and the IC50 (in vitro) was over 60 µM. The IC50 [2] was 0.0588 ± 0.0073 µM and the IC50 [4] was 1.31 µM.
In the case of `CC(C)[C@H]1CC[C@@]2(O)COC(=O)[C@H]2[C@@H]1/C=C(\CO)C(=O)O` [hydroheptelidic acid, reference compound], the “inhibition of T. gondii” value (T. gondii) is given as “no activity”.
